Patent US20250268873A1, “COMBINATION OF DUAL ATM AND DNA-PK INHIBITORS AND IMMUNOTHERAPEUTIC AGENTS FOR USE IN CANCER THERAPY” (XRAD THERAPEUTICS, INC., priority 2021, published 2025)

Key:
[1] = target: DNA-PK (Homo sapiens (Human), UniProt P78527); assay: Pharmacodynamic assay, pDNA-PK/DNA-PK in FADU tumors; format: in vivo; settings: for pDNA-PK/DNA-PK: FADU tumors
Protocol: FADU or MDA-MB-231 cells were harvested during log phase growth for in vivo implantation. The resuspended cells were washed three times in phosphate buffered saline (PBS) before preparing the working dilution in PBS. FADU cells were diluted to 1×10^7 cells/mL and MDA-MB-231 cells were diluted to 5×10^7 cells/mL. Each mouse was injected subcutaneously in the right flank with 100 μL of the cellular suspension. Tumor growth was monitored until the tumors reached a target volume of at least 100 mm^3, at which point mice were randomly stratified into four treatment groups.
Tumor studies were performed as follows. Mice bearing FADU or MDA-231 tumors were pre-dosed with vehicle alone or compound 569 alone at 3, 6, and 10 mg/kg. Tumors were then irradiated with 10 Gy 45 min after vehicle or compound 569 administration or left unirradiated (vehicle and compound 569 at 10 mg/kg). Tumors were harvested 1 h post radiation.
Tissue homogenates for pharmacodynamic analyses were collected and processed as follows. Tumor tissues from FADU or MDA-MB-231 tumors were flash frozen in liquid nitrogen and pulverized on dry ice using a tissue pulverizer. A portion of the tumor powder was transferred into a microtube, followed by addition of 500 μL of RIPA buffer [[…], pH 8.0, 150 mM NaCl, 0.1% SDS, 0.5% sodium deoxycholate, 1% IGEPAL® CA-630 (Sigma, I8896)]. To 10 ml of RIPA buffer, 2 tablets each of Protease inhibitor and Phosphatase inhibitor (Roche, #04693159001 & #04906837001), 200 μL of 0.1 M PMSF and 160 μL of Aprotinin, (Sigma, A6279) were added. The suspension was homogenized on ice with a pellet pestle motor (KONTES) and incubated on ice for 30 minutes. Cell lysates were centrifuged at 13,200 rpm for 15 min at 4° C. and supernatants were transferred to a new tube and analyzed for protein concentration with a BCA kit (Pierce, 23227), followed by immunoblotting.

[2] = tested on: DNA-PK and ATM kinases; assay: Immunoblot of radiation-induced phosphorylation in MCF7 cells; format: cell-based, human; settings: 20, 100, 500, 1000 nM, 30 min pre-treatment, 10 Gy IR
Source text: Antibodies recognizing phosphorylated/activated ATM (S1981, #ab81292) and DNA-PKcs (S2056, #ab18192) were purchased from Abcam Biotechnology (Cambridge, MA). Antibodies to ATM (#A1106) and DNA-PKcs (#ab1832) were from Sigma and Abcam, respectively. Phospho-KAP1 (S824, #A300-767A) and KAP1 (A700-014) antibodies were from Bethyl Labs (Montgomery, TX). Phospho-TBK1 (#5483), cGAS (#15102), and pSTING (S366, #19781S) antibodies were from Cell Signaling Technology (CST) (Danvers, MA). STING (PA5-23381) antibodies were from ThermoFisher Scientific (Waltham, MA), and actin (#A5316) antibodies were from Sigma. […]
Cells were pretreated with Compound 569 at 20, 100, 500, or 1000 nM or DMSO for 30 min and then irradiated with 0 or 10 Gy (XRAD 160, Precision X Ray) as shown in FIG. 1. […] One hour after IR, cells were lysed in RIPA buffer ([…], pH 8.0, 150 mM NaCl, 0.1% SDS, 0.5% sodium deoxycholate, 1% IGEPAL® CA-630 (Sigma, 18896) for 20 min at 4° C. in the presence of protease and phosphatase inhibitor cocktails (Roche, #04693159001 & #04906837001). Cell lysates were centrifuged at 13,200 g for 10 min at 4° C. and supernatants were analyzed for protein content using BCA assay (Pierce™ BCA Protein Assay Kit, cat #23227, ThermoFisher Waltham, MA 02451) and equal amounts of protein/lane were used for subsequent immunoblot analyses. Proteins were denatured by adding NuPAGE LSD Sample Buffer [4×] […]

## CC(C)NCCOc1ncc(-c2cc3c4c(cnc3cc2F)N(C)C(=O)C42CCC2)cc1NS(C)(=O)=O [Compound 569, N-(5-(7′-Fluoro-3′-methyl-2′-oxo-2′,3′-dihydrospiro[cyclobutane-1,1′-pyrrolo[2,3-c]quinolin]-8′-yl)-2-(2-(isopropylamino)ethoxy)pyridin-3-yl)methanesulfonamide]
[1]; 10 mg/kg, 10 Gy, FADU and MDA231 tumors (FIGS. 4 and 5), read-out: inhibition of tumor levels of radiation-induced autophosphorylation of DNA-PK
  inhibition at 10 mg/kg: ~55%
[1]; 10 Gy, 3 mg/kg oral
  pDNA-PK/DNA-PK: 0.938
[1]; 10 Gy, 6 mg/kg oral
  pDNA-PK/DNA-PK: 0.658
[1]; 10 Gy, 10 mg/kg oral
  pDNA-PK/DNA-PK: 0.476
[1]; no radiation, 10 mg/kg oral
  pDNA-PK/DNA-PK: 0.343
[1]; no radiation, 10 mg/kg
  basal phosphorylation of DNA-PK in tumors: inhibited
[2]
  inhibition of radiation-induced phosphorylation of DNA-PKcs (Ser2056), ATM (Ser1981) and KAP1 (ser824): potent dose-dependent inhibition
